Legend:
[1] = biological target: T1, Phosphatidylinositol 4,5-bisphosphate 3-kinase catalytic subunit alpha isoform (Homo sapiens, UniProt P42336); assay: Inhibition of PI3Kalpha assessed as enzyme activity at 10 uM relative to control; parameters: scale not given: the % may be the effect or the level left
[2] = biological target: T2, Phosphatidylinositol 4,5-bisphosphate 3-kinase catalytic subunit beta isoform (Homo sapiens, UniProt P42338); assay: Inhibition of PI3Kbeta assessed as enzyme activity at 10 uM relative to control; parameters: scale not given: the % may be the effect or the level left
Target sequence in this assay (P42338 whole entry, looked up, canonical isoform): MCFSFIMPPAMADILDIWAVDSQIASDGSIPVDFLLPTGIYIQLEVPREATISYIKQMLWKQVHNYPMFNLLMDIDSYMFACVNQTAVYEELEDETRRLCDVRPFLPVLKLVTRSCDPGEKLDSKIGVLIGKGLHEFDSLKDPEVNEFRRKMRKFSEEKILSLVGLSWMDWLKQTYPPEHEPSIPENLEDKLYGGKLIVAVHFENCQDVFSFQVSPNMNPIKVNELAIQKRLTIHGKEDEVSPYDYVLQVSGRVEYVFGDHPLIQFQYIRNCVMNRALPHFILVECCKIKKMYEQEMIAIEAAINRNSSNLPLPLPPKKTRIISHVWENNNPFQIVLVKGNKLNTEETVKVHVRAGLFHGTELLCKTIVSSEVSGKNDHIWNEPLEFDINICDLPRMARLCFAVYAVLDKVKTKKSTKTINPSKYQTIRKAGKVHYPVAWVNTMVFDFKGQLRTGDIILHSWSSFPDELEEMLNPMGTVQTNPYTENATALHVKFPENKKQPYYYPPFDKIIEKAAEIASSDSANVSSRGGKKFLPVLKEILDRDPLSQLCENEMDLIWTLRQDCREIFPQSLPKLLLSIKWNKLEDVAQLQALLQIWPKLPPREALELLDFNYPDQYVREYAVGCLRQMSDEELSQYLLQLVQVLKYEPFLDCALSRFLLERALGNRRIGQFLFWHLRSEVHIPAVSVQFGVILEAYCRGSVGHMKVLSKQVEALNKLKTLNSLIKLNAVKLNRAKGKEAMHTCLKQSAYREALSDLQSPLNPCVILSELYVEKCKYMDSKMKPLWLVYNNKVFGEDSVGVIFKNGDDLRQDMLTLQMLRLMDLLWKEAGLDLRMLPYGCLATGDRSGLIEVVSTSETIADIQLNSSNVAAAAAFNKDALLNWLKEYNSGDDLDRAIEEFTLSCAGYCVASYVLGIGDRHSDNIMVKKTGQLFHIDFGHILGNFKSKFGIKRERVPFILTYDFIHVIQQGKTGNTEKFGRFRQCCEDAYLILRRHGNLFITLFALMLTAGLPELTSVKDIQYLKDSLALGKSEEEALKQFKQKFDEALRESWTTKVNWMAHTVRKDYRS

[3] = biological target: Serine/threonine-protein kinase mTOR (Homo sapiens) (UniProt P42345); assay: Inhibition of mTOR assessed as enzyme activity relative to control; parameters: concentration or dose not given beside the values
[4] = biological target: T3, Phosphatidylinositol 4,5-bisphosphate 3-kinase catalytic subunit delta isoform (Homo sapiens) (UniProt O00329); assay: Inhibition of PI3Kdelta assessed as enzyme activity relative to control; parameters: concentration or dose not given beside the values
T3 sequence (whole entry): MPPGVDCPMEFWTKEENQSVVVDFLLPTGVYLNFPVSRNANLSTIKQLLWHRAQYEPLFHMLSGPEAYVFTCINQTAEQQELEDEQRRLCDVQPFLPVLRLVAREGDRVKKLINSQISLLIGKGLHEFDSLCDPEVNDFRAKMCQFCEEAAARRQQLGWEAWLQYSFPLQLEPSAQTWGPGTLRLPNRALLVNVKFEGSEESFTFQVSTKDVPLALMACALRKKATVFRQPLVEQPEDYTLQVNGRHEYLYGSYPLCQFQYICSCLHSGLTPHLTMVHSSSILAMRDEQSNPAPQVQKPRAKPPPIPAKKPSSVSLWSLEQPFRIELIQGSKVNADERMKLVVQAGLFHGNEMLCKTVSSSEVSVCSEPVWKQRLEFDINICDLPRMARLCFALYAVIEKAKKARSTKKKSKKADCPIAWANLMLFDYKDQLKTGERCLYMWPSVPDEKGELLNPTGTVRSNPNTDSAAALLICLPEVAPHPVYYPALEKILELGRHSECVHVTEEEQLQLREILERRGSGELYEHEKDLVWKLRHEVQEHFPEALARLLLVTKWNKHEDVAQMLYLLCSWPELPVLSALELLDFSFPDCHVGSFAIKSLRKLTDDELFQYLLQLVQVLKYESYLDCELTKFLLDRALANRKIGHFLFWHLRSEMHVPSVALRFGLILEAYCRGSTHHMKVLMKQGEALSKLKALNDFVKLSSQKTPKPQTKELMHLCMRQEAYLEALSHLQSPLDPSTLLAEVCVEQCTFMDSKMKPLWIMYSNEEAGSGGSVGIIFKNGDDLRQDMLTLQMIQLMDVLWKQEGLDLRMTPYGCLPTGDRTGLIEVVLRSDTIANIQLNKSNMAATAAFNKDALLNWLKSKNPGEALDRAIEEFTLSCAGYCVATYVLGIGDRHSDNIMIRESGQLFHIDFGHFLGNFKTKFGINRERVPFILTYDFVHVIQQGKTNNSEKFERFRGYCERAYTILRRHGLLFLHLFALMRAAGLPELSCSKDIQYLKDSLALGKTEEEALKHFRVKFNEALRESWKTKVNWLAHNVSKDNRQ

[5] = biological target: Phosphatidylinositol 4,5-bisphosphate 3-kinase catalytic subunit gamma isoform (Homo sapiens) (UniProt P48736); assay: Inhibition of PI3Kgamma assessed as enzyme activity relative to control; parameters: scale not given: the % may be the effect or the level left
[6] = biological target: T2, Phosphatidylinositol 4,5-bisphosphate 3-kinase catalytic subunit beta isoform; assay: Binding affinity to PI3Kbeta
Target sequence in this assay (P42338 whole entry, canonical isoform): as the sequence (P42338 whole entry, looked up, canonical isoform) above

T47D = assay: Antiproliferative activity against human T47D cells by MTT assay; assay type: functional, cell-based
[7] = biological target: T1, Phosphatidylinositol 4,5-bisphosphate 3-kinase catalytic subunit alpha isoform; assay: Binding affinity to PI3Kalpha

T1 sequence (P42336 whole entry, canonical isoform): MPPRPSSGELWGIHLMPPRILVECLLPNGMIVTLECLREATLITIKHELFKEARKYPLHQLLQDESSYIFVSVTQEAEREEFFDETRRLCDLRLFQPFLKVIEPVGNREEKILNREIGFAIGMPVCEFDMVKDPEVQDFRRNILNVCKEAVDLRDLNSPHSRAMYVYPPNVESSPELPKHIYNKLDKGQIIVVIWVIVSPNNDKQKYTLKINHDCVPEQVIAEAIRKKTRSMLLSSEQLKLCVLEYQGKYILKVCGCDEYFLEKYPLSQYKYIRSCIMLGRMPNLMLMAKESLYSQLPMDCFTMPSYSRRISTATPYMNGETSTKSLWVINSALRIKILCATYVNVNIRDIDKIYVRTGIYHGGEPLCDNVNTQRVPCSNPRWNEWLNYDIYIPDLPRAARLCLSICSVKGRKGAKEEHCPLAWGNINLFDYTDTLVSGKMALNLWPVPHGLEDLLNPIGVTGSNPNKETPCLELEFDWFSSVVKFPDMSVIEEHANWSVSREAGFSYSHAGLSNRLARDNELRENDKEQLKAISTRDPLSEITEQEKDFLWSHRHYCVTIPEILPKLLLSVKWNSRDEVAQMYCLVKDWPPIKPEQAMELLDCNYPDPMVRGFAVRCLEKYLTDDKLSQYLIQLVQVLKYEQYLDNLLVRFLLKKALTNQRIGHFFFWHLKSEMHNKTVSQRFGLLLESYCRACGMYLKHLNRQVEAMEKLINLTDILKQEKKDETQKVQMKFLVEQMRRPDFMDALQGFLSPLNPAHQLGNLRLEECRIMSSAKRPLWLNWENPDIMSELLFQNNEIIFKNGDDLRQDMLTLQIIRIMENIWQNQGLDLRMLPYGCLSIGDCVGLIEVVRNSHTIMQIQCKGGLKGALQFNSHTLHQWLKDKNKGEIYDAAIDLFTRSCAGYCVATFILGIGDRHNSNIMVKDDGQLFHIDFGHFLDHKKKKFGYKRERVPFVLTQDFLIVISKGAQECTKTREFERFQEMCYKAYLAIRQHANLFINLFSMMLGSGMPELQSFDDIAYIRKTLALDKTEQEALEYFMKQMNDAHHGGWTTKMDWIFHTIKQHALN
Phosphatidylinositol 4,5-bisphosphate 3-kinase catalytic subunit gamma isoform (Homo sapiens), sequence (P48736 whole entry, looked up, canonical isoform): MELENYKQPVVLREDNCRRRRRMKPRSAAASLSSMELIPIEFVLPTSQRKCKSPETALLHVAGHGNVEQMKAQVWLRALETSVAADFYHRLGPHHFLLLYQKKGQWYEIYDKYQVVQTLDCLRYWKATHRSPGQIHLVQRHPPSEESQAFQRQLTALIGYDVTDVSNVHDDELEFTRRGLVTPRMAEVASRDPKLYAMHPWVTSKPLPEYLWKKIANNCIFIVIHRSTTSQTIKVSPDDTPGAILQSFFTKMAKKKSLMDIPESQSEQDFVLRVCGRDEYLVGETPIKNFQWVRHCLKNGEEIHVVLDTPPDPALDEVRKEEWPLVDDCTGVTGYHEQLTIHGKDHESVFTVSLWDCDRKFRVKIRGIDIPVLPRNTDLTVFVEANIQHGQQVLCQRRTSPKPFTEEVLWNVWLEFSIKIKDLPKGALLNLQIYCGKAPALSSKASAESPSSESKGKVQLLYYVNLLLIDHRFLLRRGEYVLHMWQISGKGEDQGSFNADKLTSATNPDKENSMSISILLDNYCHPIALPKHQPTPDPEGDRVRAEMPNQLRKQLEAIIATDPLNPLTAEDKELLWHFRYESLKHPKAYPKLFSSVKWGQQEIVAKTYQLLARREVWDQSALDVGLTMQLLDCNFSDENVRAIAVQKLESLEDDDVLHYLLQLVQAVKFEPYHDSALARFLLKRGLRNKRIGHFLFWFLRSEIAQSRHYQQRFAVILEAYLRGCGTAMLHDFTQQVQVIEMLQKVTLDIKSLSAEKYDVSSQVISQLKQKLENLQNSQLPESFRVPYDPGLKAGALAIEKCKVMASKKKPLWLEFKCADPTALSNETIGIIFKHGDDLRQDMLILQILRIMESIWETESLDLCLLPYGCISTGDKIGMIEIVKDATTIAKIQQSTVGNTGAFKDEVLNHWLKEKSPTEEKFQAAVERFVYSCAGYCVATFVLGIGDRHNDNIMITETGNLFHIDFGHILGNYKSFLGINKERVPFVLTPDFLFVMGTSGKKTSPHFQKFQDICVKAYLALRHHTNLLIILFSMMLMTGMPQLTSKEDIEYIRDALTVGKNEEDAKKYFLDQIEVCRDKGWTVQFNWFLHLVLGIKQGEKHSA

CN(C)c1ncc(-c2cncc(NS(=O)(=O)c3ccccc3)c2)cn1
Activity [1]: 100%
Activity [2]: 66%

O=S(=O)(Nc1cncc(-c2cccnc2)c1)c1ccccc1
Activity [1]: 52%
Activity [2]: 7.4%

Cc1ccc(S(=O)(=O)Nc2cncc(-c3cnc(N)nc3)c2)cc1[N+](=O)[O-]
Activity [1]: 42%
Activity [2]: 0.7%
Activity [3]: 78%
Activity [4]: 0.1%
Activity [5]: 5.3%
Kd [6]: 250 nM

Nc1ncc2cc(-c3cncc(NS(=O)(=O)c4ccccc4)c3)ccc2n1
Activity [1]: 0%
Activity [2]: 0%

O=S(=O)(Nc1cncc(-c2ccc3nccn3c2)c1)c1ccccc1
Activity [1]: 4%
Activity [2]: 0.6%

Cc1nc(N)nc(C)c1-c1cncc(NS(=O)(=O)c2ccccc2)c1
Activity [1]: 89%
Activity [2]: 18%

Nc1ncc(-c2cncc(NS(=O)(=O)c3cccc(C(F)(F)F)c3)c2)cn1
Activity [1]: 30%
Activity [2]: 1.2%
Activity [3]: 41%
Activity [4]: 0.9%
Activity [5]: 9.6%
Kd [6]: 430 nM

Nc1ncc(-c2cncc(NS(=O)(=O)c3ccc(F)cc3F)c2)cn1
IC50 (T47D): 8500 nM
Activity [1]: 22%
Activity [2]: 0.7%
Activity [3]: 56%
Activity [4]: 4.7%
Activity [5]: 7.2%
Kd [6]: 220 nM

O=S(=O)(Nc1cncc(-c2cnc3nccn3c2)c1)c1ccccc1
Activity [1]: 95%
Activity [2]: 39%

CC(=O)Nc1ncc(-c2cncc(NS(=O)(=O)c3ccccc3)c2)cn1
Activity [1]: 100%
Activity [2]: 34%

Cc1nc(N)ncc1-c1cncc(NS(=O)(=O)c2ccccc2)c1
Activity [1]: 66%
Activity [2]: 5.2%

O=S(=O)(Nc1cncc(-c2cnc3[nH]ccc3c2)c1)c1ccccc1
Activity [1]: 56%
Activity [2]: 4.9%

CS(=O)(=O)Nc1cncc(-c2cnc(N)nc2)c1
Activity [1]: 62%
Activity [2]: 28%
Activity [3]: 67%
Activity [4]: 38%
Activity [5]: 43%
Kd [6]: 5200 nM

Nc1ncc(-c2cncc(NS(=O)(=O)c3ccc4ccccc4c3)c2)cn1
Activity [1]: 92%
Activity [2]: 1%
Activity [3]: 96%
Activity [4]: 4.2%
Activity [5]: 25%
Kd [7]: > 40000 nM
Kd [6]: 230 nM

Cc1ccc(S(=O)(=O)Nc2cncc(-c3cnc(N)nc3)c2)cc1
IC50 (T47D): 4700 nM
Activity [1]: 17%
Activity [2]: 0.5%
Activity [3]: 76%
Activity [4]: 3.4%
Activity [5]: 8.2%
Kd [6]: 100 nM

COc1ccc(S(=O)(=O)Nc2cncc(-c3cnc(N)nc3)c2)cc1
Activity [1]: 87%
Activity [2]: 1.7%
Activity [3]: 39%
Activity [4]: 4.3%
Activity [5]: 20%
Kd [6]: 500 nM

Nc1ncc(-c2cncc(NS(=O)(=O)c3ccccc3)c2)cn1
IC50 (T47D): 9600 nM
Activity [1]: 60%
Activity [2]: 1.4%
Activity [3]: 74%
Activity [4]: 4.2%
Activity [5]: 24%
Kd [6]: 360 nM

CC(=O)Nc1cncc(-c2cnc(N)nc2)c1
Activity [1]: 97%
Activity [2]: 69%
Activity [3]: 79%
Activity [4]: 65%
Activity [5]: 98%
Kd [6]: > 20000 nM

Nc1ncc(-c2cncc(NS(=O)(=O)c3ccc([N+](=O)[O-])cc3)c2)cn1
Activity [1]: 18%
Activity [2]: 1.6%
Activity [3]: 68%
Activity [4]: 9.5%
Activity [5]: 6.7%
Kd [6]: 550 nM

Nc1cncc(-c2cnc(N)nc2)c1
Activity [1]: 98%
Activity [2]: 86%
Activity [3]: 53%
Activity [4]: 82%
Activity [5]: 100%
Kd [6]: > 40000 nM

CNc1ncc(-c2cncc(NS(=O)(=O)c3ccccc3)c2)cn1
Activity [1]: 39%
Activity [2]: 5.2%

From ChEMBL document CHEMBL1921668, “Discovery of new aminopyrimidine-based phosphoinositide 3-kinase beta (PI3Kβ) inhibitors with selectivity over PI3Kα” (Bioorg Med Chem Lett, 2011)
